# Measured values: US9851354B2, “Methods of treating fragile X syndrome and related disorders” (Alcobra Ltd., priority 2013, dated 2017)
# Key:
# Format in all cases: in vivo, mouse
# Akt = assay: Brain phosphorylation of Akt (western blot)
# Procedure: (§1) In all cases, saline was used as a vehicle (control).
# (§2) The Ras-Mek-ERK and PI3K-Akt-mToR signaling pathways are involved in mediating activity dependent alterations in gene transcription underlying changes in synaptic plasticity (Klann and Dever, 2004). Phosphorylated ERK and Akt protein expression was measured by western blot analysis as previously described by Lopez Verrilli (Lopez Verrilli et al., 2009). The antibodies employed were anti-phosphospecific antibodies against Akt (1/1000) and kinase (ERK) 1/2 (1/2000) (Cell Signaling Technology, Danvers, Mass., USA). The antibody against phospho-ERK detects phosphorylation at phospho-ERK 1/2 (Thr202/Tyr204) whereas the antibody against phospho-Akt detects phosphorylation at phospho-Akt (Thr308). Total Akt and ERK 1/2 protein content and phosphorylated ERK and Akt were evaluated by blotting membranes with antiphospho-Akt (1/1000) and antiphospho-ERK antibodies (1/2000) (Cell Signaling Technology, Danvers, Mass., USA). Akt or ERK phosphorylation was normalized to protein content in the same sample and expressed as % of change with respect to basal conditions, considering basal levels as 100%. Protein loading was evaluated by stripping and re-blotting membranes with j-actin antibody (1/1000) (Sigma-Aldrich, St. Louis, Mo., USA). Phosphorylated ERK and Akt protein expression in blood lymphocytes was measured by flow cytometry. For lymphocyte biomarker determinations, a FACStar plus (Becton Dickinson) was used with the excitation laser tuned at 488 nm and green fluorescence from FITC (GST) was collected through a 515-545 nm bandpass filter. The mean FITC fluorescence Intensity was calculated in relation to the fluorescence of reference cells. The mean cellular fluorescence intensity (MFI) is directly proportional to the mean number of Ab molecules bound per cell.
# ERK = assay: Brain phosphorylation of ERK (western blot)
# Procedure: as §1, §2
# [1] = tested on: Fmr1 knockout (KO) or Wild Type (WT) mice; assay: Successive alleys (anxiety and hyperactivity); conditions: 2 months old, 150 mg/kg once daily 7 days, Study 1
# Procedure: Fmr1 knockout mice (KO2) mice (The Dutch-Belgium Fragile X Consortium, 1994), initially obtained from the Jackson Laboratory, and wild type (WT) littermates were generated on a C57BL/6J background and repeatedly backcrossed onto a C57BL/6J background for more than eight generations. The Fmr1 knockout mice were housed in groups of the same genotype in a temperature and humidity controlled room with a 12-h light-dark cycle (lights on from 7 am to 7 pm; testing was conducted during light phase). Room temperature and humidity were recorded continuously in the holding room while food and water were available ad libitum. Testing was conducted on healthy Fmr1 knockout mice and their wild type littermates (N=10 mice per treatment group) at 2 or 6 months of age during the behavioral experiments. Mice were housed in commercial plastic cages and experiments were conducted in line with the requirements of the UK Animals (Scientific Procedures) Act, 1986. All experiments were conducted with experimenters blind to genotype and drug treatment. Animals were allowed a minimum acclimatization period of one week prior to performing any experiment. No prophylactic or therapeutic treatment was administered during the acclimatization period.
# as §1
# The apparatus consisted of four successive, linearly arranged, increasingly anxiogenic alleys (each succeeding alley was painted a lighter color, had lower walls and/or was narrower than the previous alley) made of painted wood. Each section or alley was 25 cm long. Alley 1 had 25 cm high walls, was 8.5 cm wide, and was painted black. A 0.5 cm step down led to alley 2, which was again 8.5 cm wide, but had 1.3 cm high walls and was grey. A 1.0 cm step down led to alley 3, which was 3.5 cm wide, had 0.8 cm high walls, and was white. A 0.4 cm step led down to alley 4, which was also white, but had 1.2 cm wide and 0.2 cm high walls. The apparatus was elevated by anchoring the back of alley 1 to a stand, 50 cm high. Padding was provided under arms 3 and 4 in case a mouse fell off. Each mouse was placed at the closed end of alley 1 facing the wall. Timers were started 1) for the overall length of the test (5 min)+the latency to enter each arm, and 2) for the time spent in alley 1. When the mouse placed all 4 feet on to the next alley, it was considered to have entered the alley. Total time spent in each alley (all four feet) was recorded.
# Multivariate analysis of variance was employed to assess group differences across data. Repeated measures ANOVA were performed for behavioral data. Statistically significant effects in each ANOVA were followed with post hoc comparisons, using the Newman-Keuls test (Study 1) or the Tukey test (Study 2). A p value of less than 0.05 was considered significant.
# The successive alleys test effectively measured anxiety (latency to enter the Alley 1) and hyperactivity (Alleys 2 to 4). Progression from Alley 1 through the successive Alleys 2, 3, and 4 was associated with exposure to an increasingly brightly colored environment with increasingly lower walls and narrower, more exposed open arms. Time spent on, and entries into, the open arms indicated anxiety; conversely, increasing time spent in more open arms reflected hyperactivity. These factors allowed for a sensitive test bracketing a range of anxiety-like behaviors together with hyperactivity.
# [2] = Fmr1 KO mice, 2 months old, 150 mg/kg ip 7 days, Study 2
# [3] = Fmr1 KO mice, 6 months old, 150 mg/kg ip once daily 7 days
# [4] = WT mice, 2 months old, 150 mg/kg ip 7 days, Study 2
# [5] = WT mice, 2 months old, 150 mg/kg ip once daily 7 days, Study 1
# [6] = any mice (KO or WT), 2 months old, 150 mg/kg ip once daily 7 days, Study 1
smiles,measurement,setting,value
"Cc1ncc(CO)c(CO)c1O.O=C1CC[C@@H](C(=O)O)N1 [metadoxine, pyridoxol L,2-pyrrolidon-5 carboxylate]",pAkt levels in hippocampus,Akt; [2],complete reversal of activation of Akt
same,pAkt levels in pre-frontal cortex,Akt; [2],complete reversal of activation of Akt
same,pAkt levels in striatum,Akt; [2],complete reversal of activation of Akt
same,whole brain levels of pAkt,Akt; [3],reversed this increase in brain pAkt
same,"pAkt levels in hippocampus, pre-frontal cortex and striatum",Akt; [4],without effect on WT mice
same,whole brain phosphorylated Akt,Akt; [5],no effect on WT mice
same,whole brain total Akt levels,Akt; [6],no effect
same,pERK levels in hippocampus,ERK; [2],complete reversal of activation of ERK
same,pERK levels in pre-frontal cortex,ERK; [2],effect in pre-frontal cortex was partial
same,pERK levels in striatum,ERK; [2],complete reversal of activation of ERK
same,whole brain levels of pERK,ERK; [3],increase was reversed by metadoxine treatment
same,"pERK levels in hippocampus, pre-frontal cortex and striatum",ERK; [4],without effect on WT mice
same,whole brain phosphorylation of ERK,ERK; [5],no effect on phosphorylation of ERK in WT mice
same,whole brain total ERK levels,ERK; [6],no effect
same,"successive alleys, Alley 1 (anxiety)",[1]; Fmr1 KO mice,complete normalization occurred
same,"successive alleys, Alley 2 (hyperactivity)",[1]; Fmr1 KO mice,reversal of hyperactivity was partial
same,"successive alleys, Alley 3 (hyperactivity)",[1]; Fmr1 KO mice,hyperactivity was not reversed
same,"successive alleys, Alley 4 (hyperactivity)",[1]; Fmr1 KO mice,reversed this hyperactivity
same,"successive alleys, Alley 1 (anxiety)",[1]; WT mice,no effect on WT mice
same,"successive alleys, Alley 2 (activity)",[1]; WT mice,no effect on WT mice
same,"successive alleys, Alley 3 (activity)",[1]; WT mice,no effect on WT mice
same,"successive alleys, Alley 4 (activity)",[1]; WT mice,no effect on WT mice
